Measurements: US20130164386A1, “Targeting the Alpha3 Subnit of Na+-K+-ATPase for the Treatment of Cough with Sulfenamides” (THE JOHNS HOPKINS UNIVERSITY, priority 2010, published 2013)
Like-named read-outs stand apart in the source and are kept apart here.

Key:
[1] = system: citric acid evoked coughing; assay: citric acid evoked coughing in conscious (unanesthetized) guinea pigs; format: in vivo, guinea pig; conditions: 1 mg/mL, nebulized, delivered as an aerosol to the airways, listed as acid-activated omeprazole
[2] = system: citric acid evoked coughing; format: in vivo, guinea pig; conditions: anesthetized guinea pigs
[3] = system: Na+-K+ ATPase activity of cough receptor terminations; conditions: Mazzone et al., J. Neurosci. 2009; cited from earlier work
[4] = system: cough receptors; conditions: in vitro; alpha3-selective concentration; cited from earlier work
[5] = system: Na+-K+ ATPase activity of cough receptor terminations; assay: intravital FM2-10 styryl dye labeling of cough receptor terminals in tracheal mucosa; design: species or system guinea pig; conditions: data not shown
Description: FIGS. 1A-1D show: (A) selective immunohistochemical labeling of cough receptor terminations in the guinea pig tracheal mucosa with antisera to the alpha3 subunit of Na+K+-ATPase; (B) the cough receptor terminals innerating the tracheal mucosa also are brilliantly and selectively labeled intravitally by the styryl dye FM2-10. This staining method depends upon active Na+-K+ ATPase.
Mazzone, S. B, et al., “Selective Expression of a Sodium Pump Isozyme by Cough Receptors and Evidence for Its Essential Role in Regulating Cough,” J. Neurosci., 2009, 29(43):13662-13671. Thus, the cough receptors uniquely express the alpha3 subunit of the sodium pump in their peripheral terminals, and these terminals display high basal sodium pump activity based on FM2-10 fluorescence.
Referring now to FIGS. 1A-1D, it is shown that: (A) selective immunohistochemical labeling of cough receptor terminations in the guinea pig tracheal mucosa with antisera to the alpha3 subunit of Na+K+-ATPase; (B) the cough receptor terminals innerating the tracheal mucosa also are brilliantly and selectively labeled intravitally by the styryl dye FM2-10. Styryl dyes are known to produce fluorescence intensity proportional to Na+-K+-ATPase activity. Consistent with this notion, FM2-10 labeling of the cough receptor terminations is prevented by the sodium pump inhibitor ouabain (not shown). […]

[6] = system: citric acid evoked coughing; conditions: alpha3-selective concentration; cited from earlier work

Row | Structure (SMILES) | citric acid evoked coughing [1] | citric acid evoked coughing ([2]; topically applied to the tracheal mucosa, 0.1 mM, listed as acid activated omeprazole) | FM2-10 labeling of the cough receptors [3] | blood pressure ([2]; dose 30 μg/kg lv) | citric acid evoked coughing ([2]; dose 30 μg/kg lv) | heart rate ([2]; dose 30 μg/kg lv) | respiratory pattern at eupnea ([2]; dose 30 μg/kg lv) | high frequency action potential patterning in cough receptors [4] | FM2-10 labeling of the cough receptor terminations [5] | coughing evoked in vivo [6]
1 | COc1ccc2[nH]c([S+]([O-])Cc3ncc(C)c(OC)c3C)nc2c1 (stereo not shown) [omeprazole] | markedly inhibits | nearly abolished | – | – | – | – | – | – | – | –
2 | C[C@@H]1O[C@@H](O[C@H]2C[C@@H](O)[C@]3(CO)[C@H]4[C@H](O)C[C@]5(C)[C@@H](C6=CC(=O)OC6)CC[C@]5(O)[C@@H]4CC[C@]3(O)C2)[C@H](O)[C@H](O)[C@H]1O [ouabain] | – | – | prevented | no effect | nearly abolished | no effect | no effect | reduced substantially | prevented | reduced substantially
